Results on three molecules are retold here after patent publication US20060110401A1, “Mixture of peptides from c and ns3 proteins of the hepatitis c virus and applications thereof” (priority 2002, published 2006).

In assay [1] the test system is DR7. Briefly: DR7. From the text:
(§1) Table printed on a drawing sheet, Figure 3
(§2) The patent's description of the figure: FIG. 3 illustrates the binding activity, with respect to the HLA II molecules that are predominant in the Caucasian population, of a second series of peptides of the C and NS3 proteins, derived from the first series. The values correspond to the IC50 values, expressed in nM.
(§3) First copying reader's note: The sheet prints no unit; blank spacer lines between peptide groups are left out, and the Nb head is printed slightly left of its column.; the cell N1056-1070 / DR15 is printed empty.; the cell N1056-1070 / DR15 is printed empty.
Where the first naming reader finds the target: head: DR7

In assay [2] the test system is DRB5. Description: DRB5.
Description: as §1, §2, §3
Where the first naming reader finds the target: head: DRB5

For assay [3], the system named is DR1. Briefly: DR1.
Description: as §1, §2, §3
Where the first naming reader finds the target: head: DR1

Assay [4] deals with DR11. Briefly: DR11.
Description: as §1, §2, §3
(§4) Where the first naming reader finds the target: head: DR11

In assay [5] the test system is DR15. Briefly: DR15.
Description: as §1, §2, §3
Where the first naming reader finds the target: head: DR15

Assay [6] deals with DR4. Briefly: DR4.
Description: as §1, §2, §3
Where the first naming reader finds the target: head: DR4

The test system of assay [7] is DP401. Description: DP401.
Description: as §1, §2, §3
Where the first naming reader finds the target: head: DP401

Assay [8] addresses T1, HLA-DRB3 (DRB3*0101) (Homo sapiens, UniProt P01903+P79483).
T1 construct: endogenous in cells; host or cells: homozygous EBV-transformed human B lymphocyte lines; immunopurified with antibody L243
Briefly: HLA II/peptide binding assay, HLA-DRB3. The conditions noted are these: read-out: binds with good affinity to DRB3.

Assay [9] concerns the target T2, HLA-DR15 (DRB1*1501) (Homo sapiens, UniProt P01903+P01911).
T2 construct: endogenous in cells; host or cells: homozygous EBV-transformed human B lymphocyte lines; immunopurified with antibody L243
Briefly: biochemical. Format: binding. The conditions noted are these: DRB1*1501; read-out: binds with good affinity to DR15.

Assay [10] concerns DR13. Briefly: DR13. From the text: (§5) Table printed on a drawing sheet, Figure 2
Where the first naming reader finds the target: head: DR13

In assay [11] the test system is DRB5. Description: DRB5. The source holds these as a separate data set.
Assay [12] concerns DRB4. Description: DRB4.
Description: as §5
Where the first naming reader finds the target: head: DRB4

The subject of assay [13] is DP402. Briefly: DP402.
The test system of assay [14] is DR3. Briefly: DR3.
Description: as §5
Where the first naming reader finds the target: head: DR3

The target of assay [15] is HLA-DR11 (DRB1*1101) (Homo sapiens, UniProt P01903+P01911, A100R/A169T/A87E/I96F/K41T/L162R/M171V/P40S/Q125H/Q178H/Q39Y/Q99D/R42S/S66Y/T262R/V115G/W38E). Description: biochemical. The note with it: read-out: binds with good affinity to DR11. Format: binding.
HLA-DR11 (DRB1*1101), sequence (P01903 26-254 limits assumed, other chains not shown): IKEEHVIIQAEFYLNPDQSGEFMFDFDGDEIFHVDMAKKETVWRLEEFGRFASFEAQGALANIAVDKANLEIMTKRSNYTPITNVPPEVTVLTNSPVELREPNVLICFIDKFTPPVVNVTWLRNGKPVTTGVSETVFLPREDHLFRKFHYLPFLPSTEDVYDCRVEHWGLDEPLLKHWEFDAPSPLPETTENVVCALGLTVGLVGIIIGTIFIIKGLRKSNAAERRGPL
The target of assay [16] is HLA-DR7 (DRB1*0701) (Homo sapiens, UniProt P01903+P01911, A100R/A102G/A103Q/D57E/D86V/E43K/F76Y/K127E/L162R/M171V/P40G/Q125H/Q99D/R33Q/R42Y/R54Q/S133A/S66F/T210M/V115G/Y107V/Y59L/Y89S). Briefly: biochemical. Format: binding. The note with it: read-out: binds with good affinity to DR7.
The target of assay [17] is T3, HLA-DR1 (DRB1*0101) (Homo sapiens, UniProt P01903+P01911, A100R/D57E/F55L/F60I/F76Y/I96L/L162R/M171V/P40L/Q125E/R42F/V115G/Y59C).
T3 construct: endogenous in cells; host or cells: homozygous EBV-transformed human B lymphocyte lines; immunopurified with antibody L243
Description: biochemical. Format: binding. The note with it: for IC50: DRB1*0101.

In assay [18] the target is HLA-DP401 (DPB1*0401) (Homo sapiens, UniProt P04440+P20036). Briefly: biochemical. Format: binding. The conditions noted are these: DP*0401; read-out: binds with good affinity to DP401.
Assay [19] has as its system DR1. Description: DR1. The source holds these as a separate data set.
Assay [20] deals with DR4. Briefly: DR4. This is another data set of the same source.
Assay [21] has as its system DP401. Description: DP401. The source holds these as a separate data set.
In assay [22] the target is T4, HLA-DR4 (DRB1*0401) (Homo sapiens, UniProt P01903+P01911, A100K/A169T/F76Y/I96L/K127E/L162R/M171V/N62H/P40V/Q125Y/R42H/S133A/S149N/S66Y/V115G/V209L/W38E).
T4 construct: endogenous in cells; host or cells: homozygous EBV-transformed human B lymphocyte lines; immunopurified with antibody L243
Briefly: biochemical. Format: binding. The note with it: read-out: binds with good affinity to DR4.

Assay [23] relates to DRB3. Briefly: DRB3.
For assay [24], the system named is DR7. Description: DR7. The source holds these as a separate data set.
For assay [25], the system named is DR15. Briefly: DR15. The source holds these as a separate data set.
In assay [26] the test system is splenocytes from mice transgenic for the human HLA-DR1 molecules. Briefly: Proliferation assay with splenocytes of immunized HLA-DR1 transgenic mice. Format: in vivo. The conditions noted are these: 25 μg of single peptide in montanide, subcutaneous, two injections; restimulation 5 μg/ml; FIG. 4A. As for the experimental part: The ability of the peptides having good affinity for the HLA II molecules, as defined above, to induce an immune response was evaluated by means of an in vitro proliferation assay in mice transgenic for HLA-DR1 molecules (Wilkinson et al., Infect. Immunity, 1999, 67, 1501-; Rosloniec et al., J. Exp. Med., 1997, 185, 1113-), pre-immunized with these peptides.
15 days later, a second injection was given under the same conditions. Ten days after the second injection, the animals were sacrificed and their spleen was removed. The splenocytes were cultured in HL-1 medium (Biowhittaker) supplemented with 1% of mouse serum, in the presence of 5 μg/ml of each of the peptides used for the injection, or in the absence of peptide. After 4 days of culture, 1 μCi of tritiated thymidine (Amersham, Life Technologies) was added for 16 h. The tritiated thymidine incorporation was then measured using a beta-counter (Microbeta 1450, Perkin Elmer). The results are expressed as a proliferation index (number of CPM in the presence of peptide/number of CPM in the absence of peptide).

Assay [27] has as its system DR11. Description: DR11.
Description: as §5, §4
This is another data set of the same source.

Like-named read-outs stand apart in the source and are kept apart here. Residues, ends and D or L forms follow the SMILES beside them. A value given as a limit tells only on which side of the number the result lay.

Consider GAPLGGAARALAHG [C 141-155], for which the IC50 in [1] stood at 11.8 µM; in [2], 8.33 µM; in assay [3], 3.5 µM; in [4], 0.49 µM; in [5], 50 µM; in assay [6], 80 µM. In addition, in assay [7], the IC50 turned out to be 9.49 µM.

For the molecule `CC[C@H](C)[C@H](NC(=O)[C@H](CC(N)=O)NC(=O)[C@@H]1CCCN1C(=O)[C@@H](N)CC(=O)O)C(=O)N[C@@H](CCCNC(=N)N)C(=O)N[C@H](C(=O)NCC(=O)N[C@H](C(=O)N[C@@H](CCCNC(=N)N)C(=O)N[C@H](C(=O)N[C@H](C(=O)N[C@H](C(=O)N[C@H](C(=O)NCC(=O)N[C@@H](CO)C(=O)N1CCC[C@H]1C(=O)N[C@H](C(=O)N[C@H](C(=O)N[C@@H](Cc1ccc(O)cc1)C(=O)N[C@@H](CO)C(=O)N[C@H](C(=O)N[C@@H](Cc1ccc(O)cc1)C(=O)NCC(=O)N[C@@H](CCCCN)C(=O)N[C@@H](Cc1ccccc1)C(=O)N[C@@H](CC(C)C)C(=O)N[C@@H](C)C(=O)N[C@@H](CC(=O)O)C(=O)NCC(=O)NCC(=O)O)[C@@H](C)O)[C@@H](C)O)[C@@H](C)CC)[C@@H](C)O)[C@@H](C)O)[C@@H](C)O)[C@@H](C)O)C(C)C)[C@@H](C)O` [19N 1275-1304] (H-DPNIRTGVRTTTTGSPITYSTYGKFLADGG-OH; N-terminus and C-terminus assumed), the IC50 in [8] is less than 1 µM; in assay [9], less than 1 µM; in [10] it was greater than 100 µM; in assay [11], 1.3 µM; in [12], 3.5 µM; in assay [13], 1.82 µM. Moreover, the IC50 in assay [14] is greater than 100 µM; in assay [15] it was less than 1 µM; in [16], less than 1 µM; in assay [17] (read-out: binds with good affinity to DR1), less than 1 µM; in [18], less than 1 µM; in assay [19] it was 0.15 µM. In addition, the IC50 in assay [20] is 0.5 µM; in [21] it was 0.548 µM; in assay [22] it was less than 1 µM; in [23] it was 0.15 µM; in assay [24] it was 0.113 µM; in [25] it was 0.55 µM.

Turning to `CC(C)C[C@H](NC(=O)[C@H](C)NC(=O)[C@H](CCCNC(=N)N)NC(=O)[C@H](C)N)C(=O)N[C@@H](C)C(=O)N[C@@H](Cc1c[nH]cn1)C(=O)NCC(=O)N[C@H](C(=O)N[C@@H](CCCNC(=N)N)C(=O)N[C@H](C(=O)N[C@@H](CC(C)C)C(=O)N[C@@H](CCC(=O)O)C(=O)N[C@@H](CC(=O)O)C(=O)NCC(=O)N[C@H](C(=O)N[C@@H](CC(N)=O)C(=O)N[C@@H](Cc1ccc(O)cc1)C(=O)N[C@@H](C)C(=O)N[C@H](C(=O)NCC(=O)N[C@@H](CC(N)=O)C(=O)N[C@@H](CC(C)C)C(=O)N1CCC[C@H]1C(=O)NCC(=O)N[C@@H](C)C(=O)N[C@@H](CO)C(=O)O)[C@@H](C)O)C(C)C)C(C)C)C(C)C` [6C 148-173] (H-ARALAHGVRVLEDGVNYATGNLPGAS-OH; N-terminus and C-terminus assumed), the IC50 is 9.5 µM in [10]; 4.33 µM in assay [11]; 27.5 µM in [12]; 4.33 µM in assay [27]; 3.5 µM in [14]; 10 µM in assay [17] (competition with biotinylated tracer HA 306-318, read-out: IC50, binding to HLA-DR1). The IC50 in assay [20] stood at 0.03 µM; in [23] it was 4.83 µM; in assay [24], 3.17 µM; in assay [25], 6.67 µM. Moreover, in assay [26], the “immune response (splenocyte proliferation index)” value is recorded as “do not induce any effect”. Further, the “affinity for HLA-DR1 (in words)” value in assay [17] (legend of FIG. 4) is “low affinity”.
